Source: publication PMC9365693 (Nature, 2022)
Ends that are not written are not given here.

Tests used:
Staphylococcus simulans [1] = test: Sytox green membrane damage assay, S. simulans; type: cell-based; settings: Sytox green, Gram-positive bacteria, 20 °C, pH 7.2, 2 min before and 6 min after antibiotic; triplicates
Procedure: (§1) The bacterial cultures were grown overnight at 30 °C in TSB media for S. simulans and at 37 °C in LB medium for Bacillus subtilis. Secondary cultures were grown for 3 h until OD600 = 0.5 was reached. The bacterial cells were then centrifuged at 1,500g for 10 min at 4 °C and washed twice with 10 ml of buffer (10 mM Tris, 100 mM NaCl, 1 mM MgCl2 and 0.5% glucose, pH 7.2). The bacterial cells were resuspended to an OD600 = 10 in the buffer and used for the experiment. […] For the assay, 1 μl of the bacterial suspension was added to 1 ml of buffer. For the ion leakage assays, 1 μl of the DiSC-2 probe from a 1 mM stock was added to the cuvette and the fluorescence was measured between a wavelength of 650 nm and 670 nm (bandwidth of […]) for 2 min before the addition of the antibiotic and 6 min after. For the Sytox green leakage assays, 1 μl of the Sytox green probe from a 0.25 mM stock was added to the cuvette and the fluorescence was measured between a wavelength of 500 nm and 520 nm (bandwidth of […]) for 2 min before the addition of the antibiotic and 6 min after. All experiments were performed in triplicates.

S. simulans = test: MIC, S. simulans (given with permeabilization assay concentrations); type: cell-based
B. subtilis = test: MIC, B. subtilis (given with permeabilization assay concentrations); type: cell-based, Bacillus subtilis
Procedure: as §1

Staphylococcus simulans [2] = test: DiSC membrane depolarization (ion leakage) assay, S. simulans; type: cell-based; settings: DiSC-2 probe, Gram-positive bacteria (Fig. 4h and Extended Data Fig. 10b,c), 20 °C, pH 7.2, 2 min before and 6 min after antibiotic; triplicates
Procedure: as §1

[3] = species not clearly assigned (S. simulans by word order)

Molecule	membrane damage, Sytox green (in words) (Staphylococcus simulans [1])	concentration stated as 10× MIC (S. simulans; [3]) [µM]	concentration stated as 1× MIC (S. simulans; S. simulans) [µM]	concentration stated as 10× MIC (B. subtilis) [µM]	decrease in membrane potential / depolarization (in words) (Staphylococcus simulans [2])	concentration stated as 1× MIC (S. simulans; [3]) [µM]
CN[C@H](CC(C)C)C(=O)N[C@H]1C(=O)N[C@@H](CC(N)=O)C(=O)N[C@H]2C(=O)N[C@H]3C(=O)N[C@H](C(=O)N[C@H](C(=O)O)c4cc(O)cc(O)c4-c4cc3ccc4O)[C@H](O)c3ccc(c(Cl)c3)Oc3cc2cc(c3O[C@@H]2O[C@H](CO)[C@@H](O)[C@H](O)[C@H]2O[C@H]2C[C@](C)(N)[C@H](O)[C@H](C)O2)Oc2ccc(cc2Cl)[C@H]1O [vancomycin]	Such effects were again absent	10				
plectasin: lipid II binder plectasin (GFGCNGPWDEDDMQCHNHCKSIKGYKGGYCAKGGFVCKCY; ends and bridges not checked; cysteine pairing not given here; UniProt Q53I06 56-95, looked up) [reference compound]	Such effects were again absent		0.5	0.2		
nisin					Membrane depolarization was also observed	0.01
